# Assay results reported in patent US10167262B2, “Herbicidal substituted 3-arylpyrazoles” (FMC CORPORATION, priority 2014, dated 2019).
# Legend:
# Test in all cases: Test E pre-/postemergence greenhouse test, plant response rating 0-100
# Type in all cases: in vivo
# [1] = system: field bindweed (Convolvulus arvensis); details: Postemergence, scale 0 to 100
# Source text: (§1) Seeds of plant species selected from corn (Zea mays), soybean (Glycine max), velvetleaf (Abutilon theophrasti), lambsquarters (Chenopodium album), wild poinsettia (Euphorbia heterophylla), palmer pigweed (Amaranthus palmeri), waterhemp (common waterhemp, Amaranthus rudis), surinam grass (Brachiaria decumbens), large (Lg) crabgrass (Digitaria sanguinalis), Brazilian crabgrass (Digitaria horizontalis), fall panicum (Panicum dichotomiflorum), giant foxtail (Setaria faberii), green foxtail (Setaria viridis), goosegrass (Eleusine indica), johnsongrass (Sorghum halepense), ragweed (common ragweed, Ambrosia elatior), barnyardgrass (Echinochloa crus-galli), sandbur (southern sandbur, Cenchrus echinatus), arrowleaf sida (Sida rhombifolia), Italian ryegrass (Lolium multiflorum), dayflower (Virginia (VA) dayflower, Commelina virginica), field bindweed (Convolvulus arvensis), morningglory (Ipomoea coccinea), nightshade (eastern black nightshade, Solanum ptycanthum), kochia (Kochia scoparia), yellow nutsedge (Cyperus esculentus), smartweed (ladysthumb smartweed, Polygonum persicaria), cocklebur (common cocklebur, Xanthium strumarium), and hairy beggarticks (Bidens pilosa), were planted into a silt loam soil and treated preemergence with test chemicals formulated in a non-phytotoxic solvent mixture which included a surfactant.
# (§2) At the same time, plants from these crop and weed species and also waterhemp_RES1, (ALS & Triazine resistant common waterhemp, Amaranthus rudis), and waterhemp_RES2, (ALS & HPPD resistant common waterhemp, Amaranthus rudis) were planted in pots containing Redi-Earth® planting medium (Scotts Company, 14111 Scottslawn Road, Marysville, Ohio 43041) comprising spaghnum peat moss, vermiculite, wetting agent and starter nutrients were treated with postemergence applications of test chemicals formulated in the same manner. Plants ranged in height from 2 to 18 cm for postemergence treatments (1- to 4-leaf stage).
# (§3) Treated plants and controls were maintained in a greenhouse for 14 to 21 days, after which time all species were compared to controls and visually evaluated. Plant response ratings, summarized in Table E, are based on a scale of 0 to 100 where 0 is no effect and 100 is complete control. A dash (-) response means no test result.
# [2] = system: sandbur (southern sandbur, Cenchrus echinatus); details: Postemergence, scale 0 to 100
# Source text: as §1, §2, §3
# corn (Zea mays) = details: Postemergence, scale 0 to 100
# Source text: as §1, §2, §3
# [3] = system: Italian ryegrass (Lolium multiflorum); details: Postemergence, scale 0 to 100
# Source text: as §1, §2, §3
# [4] = system: palmer pigweed (Amaranthus palmeri); details: Postemergence, scale 0 to 100
# Source text: as §1, §2, §3
# [5] = system: waterhemp (common waterhemp, Amaranthus rudis); details: Postemergence, scale 0 to 100
# Source text: as §1, §2, §3
# [6] = system: wild poinsettia (Euphorbia heterophylla); details: Postemergence, scale 0 to 100
# Source text: as §1, §2, §3
# [7] = system: dayflower (Virginia (VA) dayflower, Commelina virginica); details: Postemergence, scale 0 to 100
# Source text: as §1, §2, §3
# [8] = system: Brazilian crabgrass (Digitaria horizontalis); details: Postemergence, scale 0 to 100
# Source text: as §1, §2, §3
# [9] = system: barnyardgrass (Echinochloa crus-galli); details: Postemergence, scale 0 to 100
# Source text: as §1, §2, §3
# [10] = system: arrowleaf sida (Sida rhombifolia); details: Postemergence
# Source text: as §1, §2, §3
# [11] = 500 g ai/ha, scale 0 to 100 (0 no effect, 100 complete control)
structure (smiles),measurement,setting,value
ON=C(c1ccccc1)c1c[nH]nc1-c1cc(Cl)cc(Cl)c1 [Compound 50],"Plant response rating, Field Bindweed",[1]; 31 g ai/ha,0
same,"Plant response rating, Field Bindweed",[1]; 62 g ai/ha,0
same,"Plant response rating, Field Bindweed",[1]; 125 g ai/ha,0
same,"Plant response rating, Field Bindweed",[1]; 250 g ai/ha,0
same,"Plant response rating, Field Bindweed",[1]; 500 g ai/ha,5
same,"Plant response rating, Sandbur",[2]; 31 g ai/ha,0
same,"Plant response rating, Sandbur",[2]; 62 g ai/ha,0
same,"Plant response rating, Sandbur",[2]; 125 g ai/ha,0
same,"Plant response rating, Sandbur",[2]; 250 g ai/ha,0
same,"Plant response rating, Sandbur",[2]; 500 g ai/ha,0
same,"Plant response rating, Corn",corn (Zea mays); 31 g ai/ha,0
same,"Plant response rating, Corn",corn (Zea mays); 62 g ai/ha,0
same,"Plant response rating, Corn",corn (Zea mays); 125 g ai/ha,0
same,"Plant response rating, Corn",corn (Zea mays); 250 g ai/ha,0
same,"Plant response rating, Corn",corn (Zea mays); 500 g ai/ha,0
same,"Plant response rating, Ryegrass, Italian",[3]; 31 g ai/ha,0
same,"Plant response rating, Ryegrass, Italian",[3]; 62 g ai/ha,0
same,"Plant response rating, Ryegrass, Italian",[3]; 125 g ai/ha,0
same,"Plant response rating, Ryegrass, Italian",[3]; 250 g ai/ha,0
same,"Plant response rating, Ryegrass, Italian",[3]; 500 g ai/ha,0
same,"Plant response rating, Pigweed, Palmer",[4]; 31 g ai/ha,65
same,"Plant response rating, Pigweed, Palmer",[4]; 62 g ai/ha,75
same,"Plant response rating, Pigweed, Palmer",[4]; 125 g ai/ha,80
same,"Plant response rating, Pigweed, Palmer",[4]; 250 g ai/ha,98
same,"Plant response rating, Pigweed, Palmer",[4]; 500 g ai/ha,98
same,"Plant response rating, Waterhemp",[5]; 31 g ai/ha,80
same,"Plant response rating, Waterhemp",[5]; 125 g ai/ha,90
same,"Plant response rating, Waterhemp",[5]; 250 g ai/ha,100
same,"Plant response rating, Waterhemp",[5]; 500 g ai/ha,100
same,"Plant response rating, Poinsettia, Wild",[6]; 31 g ai/ha,0
same,"Plant response rating, Poinsettia, Wild",[6]; 62 g ai/ha,0
same,"Plant response rating, Poinsettia, Wild",[6]; 125 g ai/ha,0
same,"Plant response rating, Poinsettia, Wild",[6]; 250 g ai/ha,20
same,"Plant response rating, Poinsettia, Wild",[6]; 500 g ai/ha,30
same,"Plant response rating, Dayflower, VA",[7]; 31 g ai/ha,0
same,"Plant response rating, Dayflower, VA",[7]; 62 g ai/ha,0
same,"Plant response rating, Dayflower, VA",[7]; 125 g ai/ha,0
same,"Plant response rating, Dayflower, VA",[7]; 250 g ai/ha,0
same,"Plant response rating, Dayflower, VA",[7]; 500 g ai/ha,0
same,"Plant response rating, Crabgrass, Brazil",[8]; 31 g ai/ha,0
same,"Plant response rating, Crabgrass, Brazil",[8]; 62 g ai/ha,0
same,"Plant response rating, Crabgrass, Brazil",[8]; 125 g ai/ha,0
same,"Plant response rating, Crabgrass, Brazil",[8]; 250 g ai/ha,0
same,"Plant response rating, Crabgrass, Brazil",[8]; 500 g ai/ha,0
same,"Plant response rating, Barnyardgrass",[9]; 31 g ai/ha,0
same,"Plant response rating, Barnyardgrass",[9]; 62 g ai/ha,0
same,"Plant response rating, Barnyardgrass",[9]; 125 g ai/ha,0
same,"Plant response rating, Barnyardgrass",[9]; 250 g ai/ha,0
same,"Plant response rating, Barnyardgrass",[9]; 500 g ai/ha,10
same,"Plant response rating, Arrowleaf Sida","[10]; 31 g ai/ha, scale 0 to 100",50
same,"Plant response rating, Arrowleaf Sida","[10]; 62 g ai/ha, scale 0 to 100",50
same,"Plant response rating, Arrowleaf Sida","[10]; 125 g ai/ha, scale 0 to 100",60
same,"Plant response rating, Arrowleaf Sida","[10]; 250 g ai/ha, scale 0 to 100",70
same,"Plant response rating, Arrowleaf Sida",[10]; [11],80
CCn1cc(C(=O)c2cccs2)c(-c2cc(Cl)cc(Cl)c2)n1 [Compound 18],"Plant response rating, Field Bindweed",[1]; 31 g ai/ha,0
same,"Plant response rating, Field Bindweed",[1]; 62 g ai/ha,15
same,"Plant response rating, Field Bindweed",[1]; 125 g ai/ha,25
same,"Plant response rating, Field Bindweed",[1]; 250 g ai/ha,25
same,"Plant response rating, Field Bindweed",[1]; 500 g ai/ha,35
same,"Plant response rating, Sandbur",[2]; 31 g ai/ha,0
same,"Plant response rating, Sandbur",[2]; 62 g ai/ha,0
same,"Plant response rating, Sandbur",[2]; 125 g ai/ha,0
same,"Plant response rating, Sandbur",[2]; 250 g ai/ha,15
same,"Plant response rating, Sandbur",[2]; 500 g ai/ha,20
same,"Plant response rating, Corn",corn (Zea mays); 31 g ai/ha,0
same,"Plant response rating, Corn",corn (Zea mays); 62 g ai/ha,0
same,"Plant response rating, Corn",corn (Zea mays); 125 g ai/ha,0
same,"Plant response rating, Corn",corn (Zea mays); 250 g ai/ha,0
same,"Plant response rating, Corn",corn (Zea mays); 500 g ai/ha,10
same,"Plant response rating, Ryegrass, Italian",[3]; 31 g ai/ha,0
same,"Plant response rating, Ryegrass, Italian",[3]; 62 g ai/ha,0
same,"Plant response rating, Ryegrass, Italian",[3]; 125 g ai/ha,0
same,"Plant response rating, Ryegrass, Italian",[3]; 250 g ai/ha,0
same,"Plant response rating, Ryegrass, Italian",[3]; 500 g ai/ha,0
same,"Plant response rating, Pigweed, Palmer",[4]; 31 g ai/ha,90
same,"Plant response rating, Pigweed, Palmer",[4]; 62 g ai/ha,90
same,"Plant response rating, Pigweed, Palmer",[4]; 125 g ai/ha,90
same,"Plant response rating, Pigweed, Palmer",[4]; 250 g ai/ha,98
same,"Plant response rating, Pigweed, Palmer",[4]; 500 g ai/ha,98
same,"Plant response rating, Waterhemp",[5]; 31 g ai/ha,50
same,"Plant response rating, Waterhemp",[5]; 62 g ai/ha,75
same,"Plant response rating, Waterhemp",[5]; 125 g ai/ha,85
same,"Plant response rating, Waterhemp",[5]; 250 g ai/ha,90
same,"Plant response rating, Waterhemp",[5]; 500 g ai/ha,95
same,"Plant response rating, Poinsettia, Wild",[6]; 31 g ai/ha,5
same,"Plant response rating, Poinsettia, Wild",[6]; 62 g ai/ha,20
same,"Plant response rating, Poinsettia, Wild",[6]; 125 g ai/ha,30
same,"Plant response rating, Poinsettia, Wild",[6]; 250 g ai/ha,30
same,"Plant response rating, Poinsettia, Wild",[6]; 500 g ai/ha,40
same,"Plant response rating, Dayflower, VA",[7]; 31 g ai/ha,0
same,"Plant response rating, Dayflower, VA",[7]; 62 g ai/ha,0
same,"Plant response rating, Dayflower, VA",[7]; 125 g ai/ha,0
same,"Plant response rating, Dayflower, VA",[7]; 250 g ai/ha,0
same,"Plant response rating, Dayflower, VA",[7]; 500 g ai/ha,5
same,"Plant response rating, Crabgrass, Brazil",[8]; 31 g ai/ha,0
same,"Plant response rating, Crabgrass, Brazil",[8]; 62 g ai/ha,5
same,"Plant response rating, Crabgrass, Brazil",[8]; 125 g ai/ha,15
same,"Plant response rating, Crabgrass, Brazil",[8]; 250 g ai/ha,20
same,"Plant response rating, Crabgrass, Brazil",[8]; 500 g ai/ha,20
same,"Plant response rating, Barnyardgrass",[9]; 31 g ai/ha,0
same,"Plant response rating, Barnyardgrass",[9]; 62 g ai/ha,10
same,"Plant response rating, Barnyardgrass",[9]; 125 g ai/ha,20
same,"Plant response rating, Barnyardgrass",[9]; 250 g ai/ha,25
same,"Plant response rating, Barnyardgrass",[9]; 500 g ai/ha,25
same,"Plant response rating, Arrowleaf Sida","[10]; 31 g ai/ha, scale 0 to 100",60
same,"Plant response rating, Arrowleaf Sida","[10]; 62 g ai/ha, scale 0 to 100",70
same,"Plant response rating, Arrowleaf Sida","[10]; 125 g ai/ha, scale 0 to 100",80
same,"Plant response rating, Arrowleaf Sida","[10]; 250 g ai/ha, scale 0 to 100",80
same,"Plant response rating, Arrowleaf Sida",[10]; [11],85
